Assay results reported in paper PMC4643876, “Picomolar Inhibition of Plasmepsin V, an Essential Malaria Protease, Achieved Exploiting the Prime Region” (PLoS ONE, 2015).
Where “and” joins values, the source holds several entries; their conditions need not be identical. Equal values may be shown once.

How the values were obtained:
Plasmepsin V (PmV) = target: T1, Plasmepsin V (PmV) (Plasmodium falciparum, UniProt Q8I6Z5); assay: PmV inhibition, fluorimetric PExEl cleavage assay; assay type: biochemical; settings: for IC50: 3 μM HRPII-PExEl substrate, averages of not less than three inhibition curves, read-out: IC50
T1 construct: PmV was purified directly from parasites; made in house
Protocol: Saponin was added to culture to a final 0.05%; parasites were recovered via centrifugation at 4°C after 5 min of incubation on ice; parasite pellets were then washed twice in cold PBS and either immediately lysed or stored at -80°C until lysis. Parasites were lysed via three pulses of ultra-sonication of 10 sec duration, in PBS containing 0.5% Triton-X100 (TX-100). […] Quick washes of the resin were performed either in batches, or over columns, to remove unbound cellular material (four with ice-cold 0.5% TX-100 in PBS and a final one with cold PBS). Resin-bound PmV was stored in PBS at 4°C and used within 2–3 weeks, larger batches had Glycerol added to them, up to 10%, and were stored at -20°C for up to 5 months. […] Quality and purity of PmV batches were routinely confirmed by protein electrophoresis. Quantification of PmV was performed via densitometry analysis of stained protein SDS-PAGE gels relative to BSA standard curves.
PExEl cleavage activity was monitored by fluorimetric measurement of PExEl cleavage, as previously reported. […] PmV activity was performed at 37°C in 50 mM Tris-Maleate, pH 6.5, 50 mM NaCl, 0.05% TX-100, 2 mM DTT. Assays were routinely conducted in triplicate. Bead-bound enzyme was added to the reaction using ‘end-cut’ micropipette tips in order to facilitate sampling the suspension.
Inhibitory activities were measured in the presence of a substrate concentration of 3 μM by serial dilution of each compound in triplicates. […] Titration curves of the inhibitors were routinely composed of eleven points from 10 μM to 0.1 pM. PmV concentration was kept in the order of low picomolar (≤10 pM). […] Analysis of the half inhibitory activity (IC50) was performed by sigmoidal interpolation of the starting velocities of the hydrolytic reactions for each condition. Starting velocities were calculated on the initial linear range of the product progression curves. […] Data are presented with error bars indicating the standard deviation of three independent activity curves.

clone DC6 = assay: Parasite growth inhibition, clone DC6 (PmV-GFP, native promoter)
Protocol: (§1) Growth impairment of parasites in culture was tested as follows. Asynchronous erythrocyte cultures of Plasmodium falciparum strain 3D7 were initiated at a starting parasitemia of 0.2–0.5% in the presence of titration curves of the PmV inhibitors generated in this work. […] Cultures, live or fixed, were analyzed at day 3 and/or 4 after initiation, approximately~ 2 cell cycles of 3D7 strain. Parasitemia was measured by flow cytometry analysis of parasitized cells stained with 0.4 μg/ml Acridine Orange or 1 μM Topro 3 (Life Technology Invitrogen), using BD Fortessa or FACS Calibur instruments.
(§2) DC6 clone expresses PmV-GFP chimera under regulation of the native promoter [15]; G6 clone, the PmV-GFP-DD chimera under regulation of the native promoter (this paper) and #3 clone (episomally expressing PmV-GFP chimera under Hsp86-5', a strong and constitutive promoter) [15]. […] (B) Growth inhibition curves of parasites expressing different levels of PmV: 3D7 (blue dots and line), DC6 (green dots and line), G6 (PmV knock-down) (red dots and line) and #3 (Overexpressing PmV) (purple dots and line) were analysed in parallel. Growth inhibition was measured in triplicates. Dots represent actual data, lines the sigmoidal fitting obtained by non-linear regression analysis. […] Error bars show the standard deviation of the data.

[1] = tested on: Plasmodium falciparum strain 3D7; assay: Parasite growth inhibition by flow cytometry, strain 3D7; assay type: cell-based
[2] = tested on: clone #3 (Overexpressing PmV); assay: Parasite growth inhibition, clone #3 (overexpressing PmV-GFP)
Protocol: as §1, §2

[3] = pH 7.4
[4] = tested on: HRPII-GFP PExEl-dependent secretion; assay: In vivo inhibition of PExEl export, live microscopy of HRPII-GFP clone; assay type: cell-based, Plasmodium falciparum; settings: 20 μM, 27 h, ring to trophozoite stages
Protocol: Parasites were imaged live or fixed. Fixation in 4% formaldehyde and 0.0075% glutaraldehyde, cell permeabilization, antibody incubation, and mounting were as previously described. Before imaging of HRPII-GFP clone, we treated with Compound 29 highly synchronized parasites at late trophozoite stage with inhibitors for 27 h, and then analyzed the distribution of the exported probe in newly invaded red blood cells. Images were acquired using a fluorescence microscope (BX51 Olympus). Live parasites were counter-stained using the nuclear dye Hoechst 33342 (Life Technologies—Molecular Probes).
Fig 16 Inhibition results in impairment of the PExEl secretion. (A) Microscopy analysis of the distribution of the PExEl-export fluorescent probe. Live parasites expressing HRPII-GFP, used as a probe for PExEl secretion, are imaged in the presence of Hoechst nuclear staining. Bright field (grey scale), nuclei (blue channel), HRPII-GFP (green) and the merged image of the fluorescent channels are presented from left to right. (panel a) untreated culture; (b) mock DMSO-treated culture; (c-f) culture treated with 20 μM 29 solubilized in DMSO (c) mid ring, (d) late-ring, (e) early-trophozoite, (f) late-trophozoite. Bar is 2 μm. […]

[5] = tested on: clone G6 (PmV knock-down); assay: Parasite growth inhibition, clone G6 (PmV-GFP-DD, PmV knock-down); settings: clone G6, absence of Shield-1
Protocol: as §1
(B) Growth inhibition curves of parasites expressing different levels of PmV: 3D7 (blue dots and line), DC6 (green dots and line), G6 (PmV knock-down) (red dots and line) and #3 (Overexpressing PmV) (purple dots and line) were analysed in parallel. Growth inhibition was measured in triplicates. Dots represent actual data, lines the sigmoidal fitting obtained by non-linear regression analysis. […] Error bars show the standard deviation of the data.

HRPII PExEl processing = assay: HRPII PExEl processing, western blot; assay type: cell-based, Plasmodium falciparum; settings: 20 μM, about 27 h, 3D7
Protocol: Protein analyses to detect PmV, HRPII and BiP via stained protein gels and blots, densitometry, antibody detection or HRP-conjugated Streptavidin, were conducted as previously described.
Fig 16 Inhibition results in impairment of the PExEl secretion. (A) Microscopy analysis of the distribution of the PExEl-export fluorescent probe. Live parasites expressing HRPII-GFP, used as a probe for PExEl secretion, are imaged in the presence of Hoechst nuclear staining. Bright field (grey scale), nuclei (blue channel), HRPII-GFP (green) and the merged image of the fluorescent channels are presented from left to right. (panel a) untreated culture; (b) mock DMSO-treated culture; (c-f) culture treated with 20 μM 29 solubilized in DMSO (c) mid ring, (d) late-ring, (e) early-trophozoite, (f) late-trophozoite. Bar is 2 μm. Impairment of HRPII-GFP PExEl-dependent export is observed in these representative images of live parasites and the GFP signal appears concentrated in regions of immediate proximity to the nuclei. […] (B) HRPII PExEl processing is inhibited by Compound 29. Western blot analysis of HRPII contained in parasites after saponin treatment. Arrows show the pro-form (p) and the mature (m) protein HRPII. 3D7 culture was incubated as described in Materials and Methods with 20 μM Compound 29 for about 27 h.

PmV = settings: different substrate at […], different buffer; ref [19], [20]; read-out: IC50, published value; cited from earlier work

T1 sequence (Q8I6Z5 whole entry): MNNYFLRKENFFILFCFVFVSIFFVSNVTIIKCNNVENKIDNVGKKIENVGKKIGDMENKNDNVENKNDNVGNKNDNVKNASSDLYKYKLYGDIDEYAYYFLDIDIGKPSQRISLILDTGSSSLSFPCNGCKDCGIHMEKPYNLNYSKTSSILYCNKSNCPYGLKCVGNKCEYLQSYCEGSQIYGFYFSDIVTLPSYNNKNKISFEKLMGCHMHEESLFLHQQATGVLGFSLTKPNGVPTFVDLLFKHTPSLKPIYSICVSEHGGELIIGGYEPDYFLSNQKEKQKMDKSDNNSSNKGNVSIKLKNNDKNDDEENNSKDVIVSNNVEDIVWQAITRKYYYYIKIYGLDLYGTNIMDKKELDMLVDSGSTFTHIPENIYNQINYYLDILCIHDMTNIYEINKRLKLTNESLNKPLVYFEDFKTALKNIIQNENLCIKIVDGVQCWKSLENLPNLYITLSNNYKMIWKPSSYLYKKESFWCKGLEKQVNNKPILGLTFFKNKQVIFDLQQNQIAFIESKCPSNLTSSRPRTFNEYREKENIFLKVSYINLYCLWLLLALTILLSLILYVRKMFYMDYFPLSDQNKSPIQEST

Compound | IC50 increase compared to Compound 13a (Plasmepsin V (PmV)) [fold] | Ki (Plasmepsin V (PmV)) [µM] | IC50 (Plasmepsin V (PmV)) [µM] | IC20 (clone DC6) [µM] | IC50 (clone DC6) [µM] | IC80 (clone DC6) [µM] | LD50 growth inhibition ([1]; asynchronous 3D7 cultures, about 4 days, 0.195–200 μM, flow cytometry) | IC20 ([1]; strain 3D7, parental line) [µM] | IC50 ([1]; strain 3D7, parental line) [µM] | IC80 ([1]; strain 3D7, parental line) [µM] | IC20 [2] [µM] | IC50 [2] [µM] | IC80 [2] [µM] | logD [3] | effect on HRPII-GFP PExEl-dependent secretion [4] | IC20 [5] [µM] | IC50 [5] [µM] | IC80 [5] [µM] | effect on natural processing of HRPII (HRPII PExEl processing) | IC50 (PmV) [µM]
CC(C)C[C@H](NC(=O)[C@@H](N)CCCCN)C(=O)N[C@@H](CC(C)C)C(O)CN[C@@H](C)C(=O)N[C@@H](CCC(=O)O)C(N)=O (mixture of isomers) [Compound 29] | 8 | 1.06 | 1.97 | 12.8 | 18.5 | 27.1 | ~ 15 μM and 15.2 μM | 14 | 17.9 | 22.7 | 25.1 | 27.5 | 30.1 | -5.99 | impairment of HRPII-GFP PExEl-dependent secretion was observed | 7.68 | 12.5 | 20.2 | inhibited | 
CC(C)C[C@H](NC(=O)[C@@H](NC(=O)[C@H](CCCNC(=N)N)NS(=O)(=O)Cc1ccccc1)C(C)C)[C@@H](O)CC(=O)NCCc1ccccc1 [WEHI916, reference compound] |  |  | 0.0324 |  |  |  |  |  |  |  |  |  |  |  |  |  |  |  |  | 0.019 to 0.02
